Test results taken from publication PMC2873402, “Discovery of High-Affinity Protein Binding Ligands – Backwards” (PLoS ONE, 2010).
Bridge positions count the residues as written; N and C are the ends. Ends that are not written are not given here. I, II: the chains in the order shown. * marks the point of attachment. StBu = CC(C)(C)S*

Assays:
Assay type in all cases: binding
[1] = system: GRP58 (protein disulfide-isomerase A3); assay: SPR screening against immobilized GRP58; conditions: 100 nM synbody, Biacore T-100, CM5 amine coupling, 25°C immobilization, 90 s association, 240 s dissociation
Experimental: The synbody (100nM concentration) was screened by Surface Plasmon Resonance (SPR) against immobilized AKT1 and GRP58 on a Biacore T-100 SPR. The synbody appeared to have high affinity for AKT1 and low affinity for GRP58 (Figure S2). To accurately determine the binding kinetics of the synbody-AKT1 complex, several concentrations of synbody were injected over a low-density surface of biotin-labeled AKT1 captured on a Neutratvidin SPR chip using a Biacore A-100.
SPR screening of the synbody against AKT1 and GRP58 was performed on a Biacore T-100 (GE Healthcare, Piscataway, NJ, USA). The series S sensor chip CM5, amine coupling reagents and HBS-EP were obtained from GE Healthcare. A standard amine immobilization protocol was performed at 25°C using NaHCO3 (10mM in 150mM NaCl, pH 4.5) as the immobilization buffer. The CM-5 dextran chip was activated by a 10 minute injection of a freshly prepared 1∶1 solution of 400 mM 1-ethyl-3-(3-dimethylaminopropyl)-carbodimide (EDC): 100 mM N-hydroxysuccimide (NHS) in water. The NHS-carboxy groups of the dextran surface were treated with a solution of AKT1 or GRP58 (25 µg/ml) in sodium acetate (pH 5.0) for 8 mins at a flow rate of 10 µl/min. Any residual active sites were then quenched by a 5 min pulse of ethylene diamine (1M, pH 8.5). […]

[2] = molecular target: T1, AKT1 (Homo sapiens, UniProt P31749); assay: IP of AKT1 from solution, Western Blot; design: purchased Life Technologies; conditions: synbody with C-terminal Lys-Biotin on streptavidin magnetic beads, 89 nM to 0.7 nM AKT1, overnight, 4°C
T1 sequence (P31749 whole entry): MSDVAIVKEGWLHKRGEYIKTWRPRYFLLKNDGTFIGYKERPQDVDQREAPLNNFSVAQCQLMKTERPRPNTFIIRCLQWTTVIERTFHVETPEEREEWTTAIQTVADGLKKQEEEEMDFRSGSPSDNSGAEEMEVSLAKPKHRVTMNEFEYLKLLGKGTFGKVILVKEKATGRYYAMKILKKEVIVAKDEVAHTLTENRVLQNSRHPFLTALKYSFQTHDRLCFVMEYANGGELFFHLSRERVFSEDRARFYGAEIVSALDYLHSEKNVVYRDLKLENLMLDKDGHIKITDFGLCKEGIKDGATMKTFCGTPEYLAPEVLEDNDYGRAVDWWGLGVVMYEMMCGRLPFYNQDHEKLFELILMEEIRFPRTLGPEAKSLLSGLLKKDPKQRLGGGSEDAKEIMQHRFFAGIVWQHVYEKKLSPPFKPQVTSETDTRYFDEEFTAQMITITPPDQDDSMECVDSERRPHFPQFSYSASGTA
Experimental: The synbody was tested for its ability to bind native protein in solution. A variant of the synbody was prepared in which the C-terminal Cys was replaced with a Lys-Biotin. The synbody was used in an immunoprecipitation (IP) experiment in which it was bound to streptavidin magnetic beads and incubated overnight with 89 nM to 0.7 nM solutions of AKT1. The beads were washed extensively and the bound protein was eluted. Samples were run on a SDS-PAGE gel and detected by Western Blot with an anti-AKT1 monoclonal antibody (Figure 3B).
(§1) For all IP experiments, either a 1 µM or 250 nM solution of biotin-conjugated synbody was captured on 20 µL of streptavidin coated paramagnetic M-280 Dynabeads (Life Technologies) according to the manufacturers protocol. Synbody coated beads were washed five times with 1 mL of 100 mM phosphate buffered saline containing 0.05% Tween-20 (PBST) and incubated overnight at 4°C with shaking in the desired amount of target protein in A549 cell lysate. For Kd determination experiments, serial dilutions of AKT1 or ABL1 were prepared in binding buffer. After binding, beads were washed five times with 1 mL of PBST and heated at 70°C in 20 µL of 1× LDS loading buffer (Invitrogen) for 10 minutes. The samples were analyzed by SDS-PAGE gel with Western Blot detection using the appropriate antibody and imaged on a GE Healthcare Typhoon Trio.

[3] = molecular target: T1, AKT1; assay: IP of AKT1 spiked into A549 cell lysate, Western Blot; design: purchased Life Technologies; conditions: 200 ng AKT1 (33.2 nM)
Experimental: As a preliminary test of specificity, 200 ng of AKT1 (33.2 nM) was spiked into increasing amounts of cell lysate prepared from un-stimulated A549 lung epithelial cells and streptavidin beads coated with 25 pmols of synbody (7.6∶1 synbody-to-AKT1 ratio) were used to pull down AKT1 using the same IP procedure and Western Blot protocol as before.
as §1

affinity for GRP58 by SPR screening [1]: low affinity | IP of AKT1 from solution [2]: bound AKT1 from solution | excess cell extract in the presence of which AKT1 is precipitated ([3]; 25 pmols synbody (7.6:1), A549 lysate): 2,500 fold excess
Substance: I: AHKVVPQRQIRHAYNRYGSGKC(StBu)-NH2 / II: FRGWAHIFFGPHVIYRGGSG (amide I:21-II:C) [synbody]
precipitation of AKT1 from A549 lysate ([3]; 25 pmols synbody (7.6:1 synbody-to-AKT1), increasing A549 lysate): successfully pulled AKT1 out of the cell lysate in the presence of an increasing concentration of A549 lysate with little reduction in AKT1 signal intensity
